The star is where a group is joined. Biotin = O=C1N[C@H]2[C@H](CS[C@H]2CCCCC(=O)*)N1; Myristoyl = CCCCCCCCCCCCCC(=O)*
Experiments:
[1] = Cytolytic activity of pH-responsive peptides on calcein liposomes at different pH; settings: liposomes 4 μM lipid; 14 nM peptide 2, 20 nM peptide 7, 45 nM peptide 9; FIG. 4
Procedure: Liposomes encapsulating calcein dye were prepared by an extrusion method (Biochim. Biophys. Acta, 812 (1985) 55). Phophatidylcholine (50 mg) and cholesterol (13.08 mg) which had been dissolved in 4 ml of 50% v/v chloroform methanol solution were evaporated to form a lipid film in a round bottom flask. If it is essential to follow the fate of liposomes a lipohilic-dye such as DiI (50 μg) could be incorporated into the lipid film prior to hydration. The film was then hydrated with 4 ml of 120 mM calcein solution prepared in 10 mM sodium phosphate 20 mM Sodium chloride buffer pH 7.4. Liposomes were formed by 10 extrusion cycles through 0.2 micron or 0.1 um polycarbonate filters using the Liposofast 100 (Avestin) extruder device. The non encapsulated dye was removed by gel filtration on a PD-10 column using iso-osmotic buffer. The total lipid concentration of the liposomes was measured by the Stewart assay and adjusted to 3 mg per ml.
The cytolytic activity of pH-responsive peptides was followed by adding 2 or 3 μl of liposomes to a 2 ml assay volume and continually recording fluorescence. Buffers were made of 10 mM Na phosphate, 140 mM NaCl, 1 mM EDTA, 5 mM HEPES at several different pH values. […] In the experiments 2 ml of 10 mM Na phosphate, 140 mM NaCl, 1 mM EDTA, 5 mM HEPES buffer (at pH values indicated on the figure) containing liposomes (4 μM lipid) and (A) 14 nM peptide 2, (B) 20 nM peptide 7 (C) 45 nM peptide 9. In all cases peptides were added indicated by sharp dip in fluorescence were used. The pH values are as indicated for each trace. […] In general, it is well documented that many proteins including receptors, enzymes and antibodies has pH optimum usually closer to physiological value. On either side of the pH optimum the binding activity is reduced. However in general as activity profile is typically bell shape most proteins would tolerate at least a pH unit shift from optimum. Obviously the closer the results are to pH 7.4 the higher chances their are for efficient binding with target proteins or receptors.

[2] = Detection of biotin by pH arming (avidin cloaking, calcein liposomes)
From the text: The modified peptide retained its activity and pH responsive properties upon modification with biotin. […] In FIG. 2, the curves from top to bottom represent (i) Peptide at pH 6.6, (ii) Peptide at pH 8 and (iii) background signal in the absence of any peptide. In FIG. 2A, the curves from top to bottom represent peptide in the presence of (i) 11 piccolos of biotin and 1,2 fold excess avidin at pH 6.6, (ii) 1.2 fold excess avidin at pH 6.6, (iii) 11 piccolos of biotin and 1.2 fold avidin at pH 8 and (iv) 1.2 fold excess avidin at pH 8.
The biotin assay using pH sensitive peptide was repeated in a glass vial which could be illuminated with a small torch or blue LED light source. Specifically, the vials contained 1.2 ml of biotinylated hybrid peptide (17 nM) in PBS buffer pH 6.2 containing calcein liposomes ([…]) and 1.2 fold excess avidin. Biotin was present in vials 3 to 6 in increasing concentration. Vials are as follows: (1) Background sample containing liposomes only, (2) no biotin, (3) 12 pmoles biotin, (4) 15 pmoles biotin, (5) 17 pmoles biotin, (6) 50 pmoles Samples were illuminated by simple 3 mm blue diodes from underneath the cuvettes. Photographs in the order top to bottom, were taken at indicated times from addition of liposomes. The actual fluorescence readings taken on a fluorimeter at five minute period are also shown graphically. Five minutes after the addition of all reagents the fluorescence became clearly visible to the naked eye compared to the background which remained low and constant allowing detection of 12 picomole of biotin rapidly without any instrumentation. (FIG. 3). However, instrumentation available in most laboratories (e.g., fluorescence, absorption, luminescence, electrochemical, biosensors), can also be used for quantitative analysis by changing the signal development molecules incorporated into the liposomes.
Peptides were prepared at concentrations ranging from 1 to 0.01 mg/ml, depending on the activity of peptide, in deionised. A stock solution of avidin (5 unit per ml, one unit of avidin binds 1 μg of biotin.) was prepared in PBS pH 7.4 buffer. Biotin, from a stock solution of 10 mg/ml prepared in DMSO, was diluted 10000 fold with water to obtain working concentrations of 1 μg/ml. A typical cytolytic assay was performed in a total volume of 2 ml PBS buffer containing calcein liposomes (5 μM lipid) as prepared above. The progress of dye leakage was continually followed using excitation and emission wavelengths of 490 and 520 nm respectively. Peptide of known concentrations-was added at certain time points and the solution was rapidly mixed while continuing to measure signal. For uncloaking the peptide activity using biotin, the additions were made to the buffer sequentially in the order avidin, 2 minute incubation with biotin followed by the addition of biotinylated peptide (44 nM). The mixture was incubated for filter 2 minutes and fluorescence measurement initiated. At selected time points liposomes (7 μM) were added and solution mixed. For the cloaking experiments the additions were essentially the same except no free biotin was added. The avidin concentration was a 1.2 fold excess units to ensure complete cloaking. For evaluating dual trigger switching properties of biotinylated peptide the liposomes (7 μM lipid) in 2 ml of buffer were treated with peptide. (2.8 nM) and fluorescence measured continually. For cloaking experiments and pH arming the peptide solution (2.8 nM) was incubated with a 1.2 fold excess of avidin solution for 3 minutes and the cytolytic assay performed at pH 6.6 and 8. For the uncloaking experiments the avidin was pre-incubated with 11 picomoles of biotin solution.
In the control sample, liposomes (4 μM lipid) were added to 1.2 ml solution of peptide (14 nM) pre-incubated with a 1.2 fold excess avidin. Test samples contained biotin at known concentrations. […]

[3] = Liposome-peptide integral complex: pH-triggered calcein release and stability; settings: complex tested 40 minutes from preparation; FIG. 9
From the text: A fatty acid incorporated on the N-terminal of peptide anchors the sequence with liposomes to form integral complex which can then be used as single stable reagent that can be triggered to release the contents-of the liposomoes when the pH is ideal (i.e physiological 7.4) or acidic (e.g 6.2). In the first instance we prepared the liposome-peptide complex at a predetermined ratio of lipid-to peptide (30:1) in pH 8 buffer using peptide 10. […] The complex between liposomes and peptide was formed by adding peptide to […] of 10 mM NaP containing 140 mM NaCl, 1 mM EDTA, 5 mM Hepes pH 8 buffer, containing 100 μl of calcein encapsulating liposomes. The mixture was incubated for 20 mins to form the complex prior to use. In order to ascertain that the lysis is occurring due to the formation of complex and not as the action of the peptide per se it was essential to purify the liposome-peptide complex. The peptide to lipid ratio in this complex is 1:30. The complex was applied to a Sepharose CL-6B column. Fractions corresponding to liposomes were collected as clearly visible to the eye. Aliquots of these fractions were then tested for lytic activity at acidic and physiological pH values. The key aim was to establish that the peptide is liposome associated and would thus be eluted with liposome fraction in the void volume. We used 100 μl complex (a column purified fraction) and followed the release of Calcein at two different pH values.
FIG. 8A. […] Upper curve pH 5.8. Lower curve pH 7.4.
2 ml buffer (10 mM Na phosphate, 140 mM NaCl, 1 mM EDTA, 5 mM HEPES)+50 μl purified complex. Lipsomes used were 50 nm extruded. Curves top to bottom are pH 6.2, 6.4, 6.7, 7.0, 7.4
Complex 20 μl liposomes+60 μl pH 8 buffer+20 μl peptide (0.1 mg/ml) prepared and used within 2 minutes. 10 μl was added to each of the cuvettes containing 2 ml buffers. Top curve pH 6.2 (triton was added towards the end indicated by sharp dip in fluorescence to check full lysis), the lower curve is at pH 7.4. Samples measured simultaneously.
5 μL of complex in 2 ml of buffer tested 20 minutes after preparation. Upper curve pH 6.2, Lower curve pH 7.4.
5 μL of complex in 2 ml of buffer tested 5 hrs after preparation. Upper curve pH 6.2 and lower curve pH 7.4.
5 μL of complex in 2 ml of buffer tested 24 hrs after preparation curve pH 6.2, Lower curve pH 7.4.

Rif-1 allografts = assay: In vivo imaging of calcein release, dorsal window chamber with implanted tumours; parameters: species or system mice; settings: for calcein fluorescence in tumour after armed complex relative to control liposomes: 100 μl complex via tail vein, untreated (No MIBG/glucose) mice, FIG. 10
Procedure: Similar methodology could be used for in vivo imaging of tumours whereby the payload is a marker or diagnostic reagent sequestered inside liposomes. For instance, when using the dye calcein, the pH released dye would be detected by increase in green fluorescence. […] Complex was prepared from biotinylated peptide (1) by adding 10 μl of pH 8 buffer to 41 μg of peptide to which was added 150 μl of Hposomes encapsulating calcein. The complex was incubated briefly and 100 μl was injected via the tail vein into mice with implanted tumours. The control mice were given equivalent levels of untreated liposomes. Using the dorsal window chamber model (Biophysics. 1997,1785-1790 & Nature Biotechnology 1999,17,1033-1035,) with implanted tumours (Rif-1 allografts) direct in vivo examination of the calcein in and around the tumours was made by fluorescence microscopy and computer controlled time-lapse images. […] Note that many tumours in animals and human, Rif-1 being one example, have an ambient pH that is slightly lower than that of normal tissue (Science 1980, 210,1253-1255 & Cancer Res 1989,4373-4384). This pathophysiological feature of tumours may be used for cancer detection. Thus unarming the complex which triggers below but close to physiological pH causes the release of dye almost immediately. This way the armed complexes can be used for in vivo detection of disease and particularly for the detection of cancer. Similarly, if the payload was combination of calcein dye and anticancer drug it would be possible to detect and treat with same formulation offering major advantages for diagnosis and treatment.

Substance | pH of triggering (pH profile of calcein release from liposomes) [1] [pH] | cloaking of the complex by avidin binding ([2]; 1.2 fold excess avidin) | release in the presence of analyte (biotin) and avidin at acidic pH ([2]; biotin, 1.2 fold excess avidin, pH 6.6) | release in the presence of analyte (biotin) and avidin at pH 8 ([2]; biotin, 1.2 fold excess avidin, pH 8) | amount of biotin detected by naked eye ([2]; glass vial, blue LED, five minutes, PBS pH 6.2, 1.2 fold excess avidin) [picomole] | activity of peptide-liposome complex at acidic pH ([2]; pH 6.6, FIG. 2) | activity of peptide-liposome complex at alkaline pH ([2]; pH 8, FIG. 2) | triggering of complex [3] | calcein fluorescence in tumour after armed complex relative to control liposomes (Rif-1 allografts) | calcein fluorescence in tumour after armed complex relative to control liposomes (Rif-1 allografts; listed as biotinylated peptide (1)) | triggering pH relative to another peptide (Rif-1 allografts; mouse, in vivo)
Myr-GIGAVLRVLTTG(TLLEFLLEELLEFL)KPALISWIRRRQQ-Amide [peptide 7] | ~7 |  |  |  |  |  |  |  |  |  | 
Myristoyl-EAALAEALAEALAEGK(Biotin)PALISWIRRRLQQ-NH2 [peptide 1] |  | efficiently cloaked | triggered | only slight release | 12 | active | inactive | trigger in acidic media | significant release of payload | intense image | closer to physiological pH than peptide 9
Myr-EAALAEALAEALAEGKPALISWIRRRLQQ-amide (Myristoyl-EAALAEALAEALAEGKPALISWIRRRLQQ-NH2; SMILES CCCCCCCCCCCCCC(=O)N[C@@H](CCC(=O)O)C(=O)N[C@@H](C)C(=O)N[C@@H](C)C(=O)N[C@@H](CC(C)C)C(=O)N[C@@H](C)C(=O)N[C@@H](CCC(=O)O)C(=O)N[C@@H](C)C(=O)N[C@@H](CC(C)C)C(=O)N[C@@H](C)C(=O)N[C@@H](CCC(=O)O)C(=O)N[C@@H](C)C(=O)N[C@@H](CC(C)C)C(=O)N[C@@H](C)C(=O)N[C@@H](CCC(=O)O)C(=O)NCC(=O)N[C@@H](CCCCN)C(=O)N1CCC[C@H]1C(=O)N[C@@H](C)C(=O)N[C@@H](CC(C)C)C(=O)N[C@H](C(=O)N[C@@H](CO)C(=O)N[C@@H](Cc1c[nH]c2ccccc12)C(=O)N[C@H](C(=O)N[C@@H](CCCNC(=N)N)C(=O)N[C@@H](CCCNC(=N)N)C(=O)N[C@@H](CCCNC(=N)N)C(=O)N[C@@H](CC(C)C)C(=O)N[C@@H](CCC(N)=O)C(=O)N[C@@H](CCC(N)=O)C(N)=O)[C@@H](C)CC)[C@@H](C)CC) [peptide 2] | ~7 |  |  |  |  |  |  |  |  |  | 

From patent US7718613B2, “Armed peptides” (priority 2001, dated 2010)
